The values that follow come from Sander's compilation of Henry's law constants (doi:10.1007/bf00479396).

The nature of this data set: Henry solubility constant Hcp at 293 K (mol/(m3 Pa)). To be noted: reference: Tremp et al. (1993).

Consider `COc1ccc(O)c([N+](=O)[O-])c1` [4-methoxy-2-nitrophenol], for which the “Henry solubility constant Hcp at 293 K” value was 5.3.

`O=[N+]([O-])c1ccc(O)c([N+](=O)[O-])c1` [2,4-dinitrophenol]: the “Henry solubility constant Hcp at 293 K” value is 110.

On to `Cc1cccc([N+](=O)[O-])c1O` [6-methyl-2-nitrophenol], for which the “Henry solubility constant Hcp at 293 K” value turned out to be 0.29.

Regarding `O=[N+]([O-])c1ccc(F)cc1O` [5-fluoro-2-nitrophenol], the “Henry solubility constant Hcp at 293 K” value turned out to be 0.5.

As for `Cc1ccc([N+](=O)[O-])c(O)c1` [5-methyl-2-nitrophenol], the “Henry solubility constant Hcp at 293 K” value is 0.77.

Take `O=[N+]([O-])c1ccccc1O` [2-nitrophenol]: the “Henry solubility constant Hcp at 293 K” value was 0.77.

`Cc1ccc(O)c([N+](=O)[O-])c1` [4-methyl-2-nitrophenol]: the “Henry solubility constant Hcp at 293 K” value came to 0.67.

As to `Cc1ccc(O)cc1` [1-hydroxy-4-methylbenzene], the “Henry solubility constant Hcp at 293 K” value was 13.

On to `Cc1cc(O)ccc1[N+](=O)[O-]` [3-methyl-4-nitrophenol], for which the “Henry solubility constant Hcp at 293 K” value worked out at 620.

As to `CCC(C)c1ccc(O)c([N+](=O)[O-])c1` (configuration not stated) [4-(1-methylpropyl)-2-nitrophenol], the “Henry solubility constant Hcp at 293 K” value worked out at 0.1.

As to `Cc1ccccc1O` [1-hydroxy-2-methylbenzene], the “Henry solubility constant Hcp at 293 K” value was 7.1.

`O=[N+]([O-])c1ccc(O)cc1` [4-nitrophenol]: the “Henry solubility constant Hcp at 293 K” value stood at 770.
